Legend:
Type in all cases: in vivo
[1] = test system: Triticum aestivum (TRZAS); assay: Post-emergence effects on crop plants, section F (Table F2); conditions: for percent crop plant damage (wheat, post-emergence) at 80 g/ha / percent crop plant damage (wheat, post-emergence) at 320 g/ha: Triticum aestivum, 504 h, read-out: post-emergence activity against TRZAS in %; for post-emergence activity against TRZAS in %: crop plant damage
Method in brief: (§1)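 Sandy loam, greenhouse, controlled conditions. Spray at single-leaf stage (2–3 wk post-sowing); WP/EC aqueous suspension/emulsion + 0.5% additive, 600 l water/ha; rate ≤320 g/ha. Visual scoring ca. 3 wk post-spray vs untreated, % effect.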

Zea mays (ZEAMX) = assay: Post-emergence effects on crop plants, section F (Table F1); conditions: for percent crop plant damage (phytotoxicity) on Zea mays, post-emergence at 320 g/ha / post-emergence activity against ZEAMX in %: application rate 320 g/ha; for post-emergence activity against ZEAMX in %: crop plant damage
Method in brief: as §1

[2] = test system: Polygonum convolvulus (POLCO); assay: Herbicidal post-emergence action, section E (Table E7); conditions: visual assessment ca. 3 weeks after spraying
Description: Seeds of mono- and dicotyledonous weed plants and crop plants were sown, in plastic or organic planting pots, in sandy loam, covered with soil and grown in a greenhouse under controlled growth conditions. 2 to 3 weeks after sowing, the test plants were sprayed in the single-leaf stage. The compounds according to the invention, formulated in form of wettable powders (WP) or as emulsifiable concentrates (EC), were sprayed onto the green plant parts as aqueous suspension or emulsion, with the addition of 0.5% of an additive, at an application rate of 600 l of water/ha (converted). The test plants were placed in the greenhouse for ca. 3 weeks under optimum growth conditions, and then the effect of the preparations was assessed visually in comparison with untreated controls (herbicidal effect in percent (%): 100% effect=plants have died off, 0% effect=as control plants).

[3] = test system: Digitaria sanguinalis (DIGSA); assay: Herbicidal pre-emergence action, section A (Table A12); conditions: for pest or weed control at 320 g/ha / pest or weed control at 1280 g/ha: Digitaria sanguinalis, 504 h, read-out: pre-emergence activity against DIGSA in %
Method in brief: (§2)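 Double sowings in sandy loam; soil-surface spray of WP/EC aqueous preparations, 0.5% additive, 600 l/ha water. Greenhouse, optimum conditions. Visual % damage at ~3 wk vs untreated (100% = dead, 0% = control-like).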

[4] = test system: Triticum aestivum (TRZAS); assay: Pre-emergence effects on crop plants, section D (Table D2); conditions: visual grading after ca. 3 weeks
Method in brief: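 After sowing in sandy loam and covering with soil, pots receive compound applied to the soil surface at rates up to 320 g/ha in 600 l water/ha containing 0.5% additive. Plants then grow under optimum greenhouse conditions. Percent herbicidal effect is rated visually at roughly 3 weeks against untreated pots.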

Poa annua (POAAN) [5] = assay: Herbicidal post-emergence action, section B (Table B7); conditions: visual rating about 3 weeks after treatment vs untreated controls
Method in brief: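 Potted weeds in sandy loam are treated post-emergence at the one-leaf stage, 2 to 3 weeks after sowing. The spray is an aqueous WP or EC preparation with 0.5% additive at 600 liters per hectare. Percent activity is assessed by eye after about 3 weeks versus untreated controls.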

Lolium rigidum (LOLRI) [6] = assay: Herbicidal post-emergence action, section B (Table B5); conditions: application rate 1280 g/ha, visual rating about 3 weeks after treatment vs untreated controls; for pest or weed control at 1280 g/ha: Lolium rigidum, post-emergence, 504 h, read-out: post-emergence activity against LOLRI in %
Method: Seeds of mono- and dicotyledonous weed plants were placed in plastic pots in sandy loam soil (doubly sown with in each case one species of mono- or dicotyledonous weed plants per pot), covered with soil and cultivated in a greenhouse under controlled growth conditions. 2 to 3 weeks after sowing, the test plants were treated at the one-leaf stage. The compounds of the invention, formulated in the form of wettable powders (WP) or as emulsion concentrates (EC), were applied onto the green parts of the plants as aqueous suspension or emulsion with addition of 0.5% additive at a water application rate of 600 liters per hectare (converted). After the test plants had been kept in the greenhouse under optimum growth conditions for about 3 weeks, the activity of the preparations was rated visually in comparison to untreated controls. For example, 100% activity=the plants have died, 0% activity=like control plants.

Poa annua (POAAN) [7] = assay: Herbicidal pre-emergence action, section A (Table A7); conditions: visual grading after ca. 3 weeks vs untreated controls; for pest or weed control at 1280 g/ha / pest or weed control at 320 g/ha: Poa annua, pre-emergence, 504 h, read-out: pre-emergence activity against POAAN in %
Method in brief: as §2

Lolium rigidum (LOLRI) [8] = assay: Herbicidal pre-emergence action, section A (Table A5); conditions: visual grading after ca. 3 weeks vs untreated controls; for pest or weed control at 320 g/ha / pest or weed control at 1280 g/ha: Lolium rigidum, pre-emergence, 504 h, read-out: pre-emergence activity against LOLRI in %
Method in brief: as §2

[9] = test system: Echinochloa crus-galli (ECHCG); assay: Herbicidal pre-emergence action, section A (Table A3); conditions: visual grading after ca. 3 weeks vs untreated controls
Method in brief: as §2

[10] = Zea mays, 504 h, read-out: post-emergence activity against ZEAMX in %
[11] = Fallopia convolvulus, 504 h, application rate 320 g/ha, read-out: post-emergence activity against POLCO in %
[12] = Echinochloa crus-galli, pre-emergence, 504 h, application rate 320 g/ha, read-out: pre-emergence activity against ECHCG in %
[13] = Poa annua, post-emergence, 504 h, application rate 320 g/ha, read-out: post-emergence activity against POAAN in %

Fc1ccccc1-c1nc2c(cc1Br)SCN2 [Example I-001, 6-bromo-5-(2-fluorophenyl)-2,3-dihydro[1,3]thiazolo[4,5-b]pyridine]
percent crop plant damage (wheat, post-emergence) at 80 g/ha ([1]; application rate 80 g/ha): 0% | percent crop plant damage (phytotoxicity) on Zea mays, post-emergence at 320 g/ha (Zea mays (ZEAMX); [10]): 10% | pest or weed control at 320 g/ha [2, 11]: 90%

COC(=O)CCC(=O)N1CSc2cc(Cl)c(-c3ccccc3F)nc21 [Example I-003]
pre-emergence activity against DIGSA in % ([3]; application rate 1280 g/ha): 100% | post-emergence activity against TRZAS in % ([1]; application rate 320 g/ha): 0% | pre-emergence activity against TRZAS in % (crop plant damage) ([4]; application rate 80 g/ha): 20% | post-emergence activity against POAAN in % (Poa annua (POAAN) [5]; application rate 320 g/ha): 100% | post-emergence activity against LOLRI in % (Lolium rigidum (LOLRI) [6]): 90% | post-emergence activity against ZEAMX in % (Zea mays (ZEAMX)): 0% | pre-emergence activity against POAAN in % (Poa annua (POAAN) [7]; application rate 1280 g/ha): 100% | pre-emergence activity against LOLRI in % (Lolium rigidum (LOLRI) [8]; application rate 320 g/ha): 100% | pre-emergence activity against ECHCG in % ([9]; application rate 1280 g/ha): 100%

BN1CSc2cc(Br)c(-c3ccccc3C)nc21 [Example I-011]
post-emergence activity against TRZAS in % ([1]; application rate 80 g/ha): 0% | post-emergence activity against POAAN in % (Poa annua (POAAN) [5]; application rate 1280 g/ha): 90% | post-emergence activity against ZEAMX in % (Zea mays (ZEAMX)): 0% | pre-emergence activity against POAAN in % (Poa annua (POAAN) [7]; application rate 320 g/ha): 100% | pre-emergence activity against LOLRI in % (Lolium rigidum (LOLRI) [8]; application rate 320 g/ha): 100% | pre-emergence activity against ECHCG in % ([9]; application rate 320 g/ha): 100% | post-emergence activity against POLCO in % ([2]; application rate 320 g/ha): 80%

Cc1cc2c(nc1-c1cccc(F)c1F)NCS2 [Example I-029, 5-(2,3-difluorophenyl)-6-methyl-2,3-dihydro[1,3]thiazolo[4,5-b]pyridine]
pest or weed control at 320 g/ha ([3]; application rate 320 g/ha): 100% | percent crop plant damage (wheat, post-emergence) at 80 g/ha ([1]; application rate 80 g/ha): 10% | pest or weed control at 1280 g/ha (Poa annua (POAAN) [5]; Poa annua, post-emergence, 504 h, application rate 1280 g/ha, read-out: post-emergence activity against POAAN in %): 90% | pest or weed control at 1280 g/ha (Lolium rigidum (LOLRI) [6]): 90% | percent crop plant damage (phytotoxicity) on Zea mays, post-emergence at 80 g/ha (Zea mays (ZEAMX); Zea mays, 504 h, application rate 80 g/ha, read-out: post-emergence activity against ZEAMX in %): 0% | pest or weed control at 1280 g/ha (Poa annua (POAAN) [7]; application rate 1280 g/ha): 100% | pest or weed control at 320 g/ha (Lolium rigidum (LOLRI) [8]; application rate 320 g/ha): 100% | pest or weed control at 320 g/ha [9, 12]: 100% | pest or weed control at 320 g/ha [2, 11]: 90%

Clc1ccccc1-c1nc2c(cc1Br)SCN2 [Example I-041, 6-bromo-5-(2-chlorophenyl)-2,3-dihydro[1,3]thiazolo[4,5-b]pyridine]
pest or weed control at 1280 g/ha ([3]; application rate 1280 g/ha): 100% | percent crop plant damage (wheat, post-emergence) at 320 g/ha ([1]; application rate 320 g/ha): 0% | pre-emergence activity against TRZAS in % (crop plant damage) ([4]; application rate 320 g/ha): 20% | pest or weed control at 320 g/ha (Poa annua (POAAN) [5]; [13]): 90% | pest or weed control at 1280 g/ha (Lolium rigidum (LOLRI) [6]): 90% | percent crop plant damage (phytotoxicity) on Zea mays, post-emergence at 320 g/ha (Zea mays (ZEAMX); [10]): 20% | pest or weed control at 1280 g/ha (Poa annua (POAAN) [7]; application rate 1280 g/ha): 100% | pest or weed control at 1280 g/ha (Lolium rigidum (LOLRI) [8]; application rate 1280 g/ha): 100% | pest or weed control at 320 g/ha [9, 12]: 100%

CCc1ccccc1-c1nc2c(cc1C)[S+]([O-])CN2 (stereo not shown) [Example I-047]
pest or weed control at 1280 g/ha ([3]; application rate 1280 g/ha): 100% | percent crop plant damage (wheat, post-emergence) at 320 g/ha ([1]; application rate 320 g/ha): 0% | pre-emergence activity against TRZAS in % (crop plant damage) ([4]; application rate 320 g/ha): 10% | pest or weed control at 320 g/ha (Poa annua (POAAN) [5]; [13]): 90% | percent crop plant damage (phytotoxicity) on Zea mays, post-emergence at 320 g/ha (Zea mays (ZEAMX); [10]): 0% | pest or weed control at 1280 g/ha (Poa annua (POAAN) [7]; application rate 1280 g/ha): 100% | pest or weed control at 320 g/ha [9, 12]: 100%

Cc1cc2c(nc1-c1ccccc1Cl)NCS2 [Example I-049, 5-(2-chlorophenyl)-6-methyl-2,3-dihydro[1,3]thiazolo[4,5-b]pyridine]
percent crop plant damage (wheat, post-emergence) at 80 g/ha ([1]; application rate 80 g/ha): 10% | pre-emergence activity against TRZAS in % (crop plant damage) ([4]; application rate 80 g/ha): 20% | pest or weed control at 80 g/ha ([2]; Fallopia convolvulus, 504 h, application rate 80 g/ha, read-out: post-emergence activity against POLCO in %): 80%

CC(=O)N1CSc2cc(Br)c(-c3ccccc3Cl)nc21 [Example I-055, 1-[6-bromo-5-(2-chlorophenyl)[1,3]thiazolo[4,5-b]pyridin-3(2H)-yl]ethanone]
pest or weed control at 320 g/ha ([3]; application rate 320 g/ha): 100% | percent crop plant damage (wheat, post-emergence) at 320 g/ha ([1]; application rate 320 g/ha): 0% | pre-emergence activity against TRZAS in % (crop plant damage) ([4]; application rate 80 g/ha): 0% | percent crop plant damage (phytotoxicity) on Zea mays, post-emergence at 320 g/ha (Zea mays (ZEAMX); [10]): 0% | pest or weed control at 320 g/ha (Poa annua (POAAN) [7]; application rate 320 g/ha): 100% | pest or weed control at 1280 g/ha (Lolium rigidum (LOLRI) [8]; application rate 1280 g/ha): 100% | pest or weed control at 1280 g/ha ([9]; Echinochloa crus-galli, pre-emergence, 504 h, application rate 1280 g/ha, read-out: pre-emergence activity against ECHCG in %): 100%

CC(C)C(=O)N1C[S+]([O-])c2cc(Br)c(-c3ccccc3)nc21 (stereo not shown) [Example I-067]
percent crop plant damage (wheat, post-emergence) at 320 g/ha ([1]; application rate 320 g/ha): 0% | pre-emergence activity against TRZAS in % (crop plant damage) ([4]; application rate 80 g/ha): 10% | percent crop plant damage (phytotoxicity) on Zea mays, post-emergence at 320 g/ha (Zea mays (ZEAMX); [10]): 0%

CCS(=O)(=O)N1C[S+]([O-])c2cc(C)c(-c3ccccc3C)nc21 (stereo not shown) [Example I-074]
pest or weed control at 1280 g/ha ([3]; application rate 1280 g/ha): 100% | percent crop plant damage (wheat, post-emergence) at 80 g/ha ([1]; application rate 80 g/ha): 0% | pre-emergence activity against TRZAS in % (crop plant damage) ([4]; application rate 80 g/ha): 0% | pest or weed control at 320 g/ha (Poa annua (POAAN) [5]; [13]): 90% | pest or weed control at 320 g/ha (Poa annua (POAAN) [7]; application rate 320 g/ha): 100% | pest or weed control at 320 g/ha (Lolium rigidum (LOLRI) [8]; application rate 320 g/ha): 100% | pest or weed control at 320 g/ha [9, 12]: 100%

Cc1cc2c(nc1-c1cccc(C)c1F)NCS2 [Example I-113]
pre-emergence activity against DIGSA in % ([3]; application rate 320 g/ha): 100% | post-emergence activity against TRZAS in % ([1]; application rate 320 g/ha): 20% | pre-emergence activity against TRZAS in % (crop plant damage) ([4]; application rate 320 g/ha): 10% | post-emergence activity against POAAN in % (Poa annua (POAAN) [5]; application rate 320 g/ha): 90% | post-emergence activity against LOLRI in % (Lolium rigidum (LOLRI) [6]): 90% | post-emergence activity against ZEAMX in % (Zea mays (ZEAMX)): 0% | pre-emergence activity against POAAN in % (Poa annua (POAAN) [7]; application rate 1280 g/ha): 100% | pre-emergence activity against LOLRI in % (Lolium rigidum (LOLRI) [8]; application rate 1280 g/ha): 100% | pre-emergence activity against ECHCG in % ([9]; application rate 1280 g/ha): 100%
